# Results as given in patent publication US10842804B2 (MEDIGEN BIOTECHNOLOGY CORP., priority 2017, dated 2020).
# Test: Phase III trial: safety profiles, treatment completion and compliance
# Settings: in vivo
# Method: After signing the consent form, the eligibility of each patient was verified according to the enrollment criteria by checking his/her medical records and current disease conditions. Eligible patients were stratified by tumor size (<5 cm vs. ≥5 cm) and vascular invasion (no vs. yes) and then randomized at a ratio of 1:1 within strata to receive PI-88 (160 mg/day) or a placebo by using a centralized interactive web response system (Cenduit Interactive Response Technology; Cenduit, Durham, N.C., USA).
# PI-88 or placebo was administered in a single subcutaneous injection each day for four consecutive days per week for 3 weeks out of every 4 weeks (a cycle with 4-weeks). The days of injection were the same in every administration week. After an initial training period of 1-8 days, participants self-administered the study drug at home. Participants received treatment for up to 52 weeks and were followed until 96 weeks.
# If the antiheparin antibody test was positive, the participant was asked to permanently discontinue the treatment.
# The distributional properties of continuous variables are expressed as mean t standard deviation, categorical variables are presented as frequency and percentage (%), and the survival curves of the DFS period were estimated using the Kaplan-Meier method. Baseline demographic and clinical characteristics were compared between the PI-88 and placebo groups. […]
substance,measurement,value
muparfostat [PI-88],fatal AEs during the study treatment period,No patients
